Source: patent US9624161B2 (priority 2009, dated 2017)

Assays:
rat ER-α = rat ER-α (Rattus norvegicus, UniProt P06211)
[1] = Preliminary oral pharmacokinetics in monkeys; format: in vivo, monkey; details: preliminary pharmacokinetic studies
Protocol: Formulations using polyethylene glycol 300 (PEG300) generally produced higher exposures than microemulsions prepared in Tween 80 diluted in deionized water. […] Importantly, in dogs the exposure in the male 30 mg/kg PEG300 oral dose group exceeded the exposure necessary to produce the maximal effect on prostate reduction in the rat model of LH suppression.

intact male rats = assay: Bone preservation despite reduction of LH and testosterone in rats (oral); format: in vivo, rat
human males = assay: Multiple dose study in human males (100, 300, 600, 1000 mg; days 1-11); format: in vivo
male or female dogs = assay: Single and repeated oral dose toxicity in dogs (up to 28 days); format: in vivo, dog
From the text: Compound IV was well-tolerated by rats and dogs after single and repeated oral administration (up to 28 days).

rat ER-α, sequence (P06211 whole entry): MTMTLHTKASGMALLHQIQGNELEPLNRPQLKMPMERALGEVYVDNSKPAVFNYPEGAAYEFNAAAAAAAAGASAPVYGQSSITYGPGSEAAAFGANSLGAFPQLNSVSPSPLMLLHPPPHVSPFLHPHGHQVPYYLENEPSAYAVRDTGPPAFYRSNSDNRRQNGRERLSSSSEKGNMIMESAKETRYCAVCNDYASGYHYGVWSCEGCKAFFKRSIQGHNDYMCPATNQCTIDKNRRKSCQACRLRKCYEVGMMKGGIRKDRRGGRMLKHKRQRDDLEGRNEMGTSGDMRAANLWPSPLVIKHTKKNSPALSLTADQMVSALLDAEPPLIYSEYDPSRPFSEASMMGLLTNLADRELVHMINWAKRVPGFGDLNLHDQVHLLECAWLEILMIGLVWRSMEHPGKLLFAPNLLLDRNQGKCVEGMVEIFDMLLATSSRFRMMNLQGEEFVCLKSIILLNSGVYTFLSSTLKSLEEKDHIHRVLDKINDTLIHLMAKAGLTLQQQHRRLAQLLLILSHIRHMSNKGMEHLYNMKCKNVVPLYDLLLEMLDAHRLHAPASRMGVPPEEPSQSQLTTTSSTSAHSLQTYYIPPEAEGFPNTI

## O=C(c1ccc(O)c(F)c1)N(c1ccc(O)cc1)c1ccc(F)cc1 [Compound IV, 3-fluoro-N-(4-fluorophenyl)-4-hydroxy-N-(4-hydroxyphenyl)benzamide]
Rat ER-α; estradiol 1 nM, Compound IV up to 10 μM
  Antagonist effects on estradiol-stimulated transcriptional activation: no antagonist effects were observed
Rat ER-α; normalized to estradiol values
  Relative selectivity in transactivation potency for ERα over ERβ: 16 fold
[1]
  Oral bioavailability: approximates or exceeds that in dogs
Intact male rats
  Bone loss associated with LH suppression: completely prevented the bone loss
Human males; 10 mg
  Change of PSA level: No changes noted
Human males; 30 mg
  Change of PSA level: No changes noted
Human males; 100 mg
  Decrease of PSA level: 9.2%
  Decrease of free testosterone level: 17.0%
Male or female dogs
  Tolerability after single and repeated oral administration: well-tolerated
